Experimental data reported in patent US10323018B2 (Millennium Pharmaceuticals, Inc., priority 2015, dated 2019).
Like-named read-outs stand apart in the source and are kept apart here.

Assays:
PC3 cells = assay: PC3 growth inhibition (Cell-titer glo, 72 hours); assay type: cell-based; settings: Homo sapiens, PC-3, 72 h, read-out: Percent Viability, PC3 cells, compound concentration 1.667 μM, 72 hours
Protocol: The invention also provides compounds that inhibit cell growth. The ability of a compound of the invention to inhibit the growth of cells can be measured using a variety of methods known in the art. For example, the ability of a compound of the invention to inhibit the growth of PC3 cells can be measured. PC3 cells can be plated and incubated overnight under CO2. For each measurement, a compound of the invention (or vehicle e.g., DMSO) can be diluted with AIM serum free medium and added to the cell plate. The cell plate can then be incubated for 72 h under CO2. Cell-titer glo solution can be added and the plates can be incubated protected from light and the amount of luminescences can be measured. Concentration response curves can be generated by calculating the luminescence increase in test compound treated samples relative to DMSO-treated controls. Percentage remaining viability values at a single concentration can be measured. Growth inhibition (GI50) or cell viability (LD50) values can be determined from thoses curves. In one embodiment, compounds of the invention have a percent viability in PC3 line @ 1.667 uM of <1%. In one embodiment, compounds of the invention have a percent viability in PC3 line @ 1.667 uM of <2%. In one embodiment, compounds of the invention have a percent viability in PC3 line @ 1.667 uM of <3%. In one embodiment, compounds of the invention have a percent viability in PC3 line @ 1.667 uM of <4%. In one embodiment, compounds of the invention have a percent viability in PC3 line @ 1.667 uM of <5%. In one embodiment, compounds of the invention have a percent viability in PC3 line @ 1.667 uM of <10%. In one embodiment, compounds of the invention have a percent viability in PC3 line @ 1.667 uM of <50%.
To measure PC3 growth inhibition, PC3 cells that were maintained in RPMI1640 growth medium (Life Technologies; Cat. No. 11875) at 37° C. under 5% CO2 are trypsinized and diluted at a density of 8×10^4 cells/ml, 25 ul per well of cells and plated in 384-well black tissue culture plate. The cells are incubated overnight at 37° C. under 5% CO2. For each measurement, a test compound or vehicle DMSO control is diluted with AIM serum free medium and added to the cell plate. The cell plate is incubated for 72 hours at 37° C. under 5% CO2. 25 μl Cell-titer glo solution (Promega; Cat. No. G8462) is added and the cell plates are incubated for 10 minutes protected from light. The luminescence is measured. Concentration response curves are generated by calculating the luminescence increase in test compound-treated samples relative to DMSO-treated controls. Percentage remaining viability values at a single concentration, growth inhibition (GI50) or cell viability (LD50) values are determined from those curves. One skilled in the art will appreciate that these values are subject to experimental variation.

hNAMPT protein = hNAMPT protein (Homo sapiens (Human), UniProt P43490); assay: NAMPT enzyme assay (TR-FRET/HTRF with BodiPY ligand); assay type: binding; settings: for inhibition at 1 µM: read-out: Percent Inhibition; for IC50: NAMPT inhibition, IC50 range class
Excerpt: As discussed above, the invention provides compounds that are useful as inhibitors of the enzyme NAMPT. The NAMPT inhibition of a compound of the invention can be measured using a variety of methods known in the art. For example, the ability of a compound of the invention to inhibit NAMPT enzyme activity can be measured using a homogeneous time resolved fluorescence (HTRF) assay using hNAMPT protein and anti 6His-Tb in buffer treated with a compound of the invention (or control e.g., DMSO) and BodiPY ligand. The TR-FRET signal can be measured using a high throughput microplate reader (e.g., Pherastar). Excitation can be carried out at 320 nm. The percent inhibition value at a single concentration of compound of the invention can be calculated relative to a control treated sample. A concentration response curve can be generated for each compound of the invention and the curve fitted to generate an IC50 value. […] To measure the inhibition of NAMPT activity hNAMPT protein stock and anti 6His-Tb (Cisbio; Cat. No. […]TLB) is diluted to 3× final concentration with assay buffer (50 mM Tris-HCl (pH 7.5), 1 mM DTT, 100 mM NaCl, 10 mM MgCl2, 0.005% Tween 20). To this solution is added a test compound or vehicle control (DMSO) and BodiPY ligand (structure below). The plate is shaken for 1-2 min sealed and incubated for 1 h at rt in the dark. The TR-FRET signal is measured using BMG Pherastar (Lanthascreen protocol on BMG Pherastar). Excitation was carried out at 320 nm, and the ratio of emission of BodiPY (520 nm) to terbium (486 nm) was determined. Concentration response curves are generated by calculating the excitation increase in test compound-treated samples relative to DMSO-treated controls. For the assay method described above, test compound percent inhibition values at a single concentration are calculated relative to control (DMSO) treated samples. Compound concentration response curves are fitted to generate IC50 values from those curves. One skilled in the art will appreciate that these values generated either as percentage inhibition at a single concentration or IC50 values are subject to experimental variation.

[1] = NAMPT inhibition at compound concentration 1 μM

Chain of hNAMPT protein (P43490 whole entry): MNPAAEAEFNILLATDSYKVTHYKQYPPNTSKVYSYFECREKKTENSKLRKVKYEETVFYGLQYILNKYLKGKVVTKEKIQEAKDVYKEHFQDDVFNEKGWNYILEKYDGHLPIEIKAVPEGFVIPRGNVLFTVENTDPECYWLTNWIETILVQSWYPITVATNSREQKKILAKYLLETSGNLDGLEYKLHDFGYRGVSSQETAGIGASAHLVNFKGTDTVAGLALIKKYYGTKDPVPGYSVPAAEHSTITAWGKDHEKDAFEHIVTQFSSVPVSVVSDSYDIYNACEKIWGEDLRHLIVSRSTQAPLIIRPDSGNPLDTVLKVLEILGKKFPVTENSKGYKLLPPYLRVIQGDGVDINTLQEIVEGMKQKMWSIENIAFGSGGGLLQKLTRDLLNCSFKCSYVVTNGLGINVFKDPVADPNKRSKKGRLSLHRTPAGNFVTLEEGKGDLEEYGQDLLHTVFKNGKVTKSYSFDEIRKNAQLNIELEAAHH

SMILES | viability at 1.667 µM (PC3 cells) | inhibition at 1 µM (hNAMPT protein; [1]) | IC50 (hNAMPT protein) | inhibition at 1 µM (hNAMPT protein)
CCCc1nc(-c2ccc(F)cc2)nc2cc(C(=O)NCCCc3ncc[nH]3)ccc12 [Compound I-16, 2-(4-fluorophenyl)-N-[3-(1H-imidazol-2-yl)propyl]-4-propylquinazoline-7-carboxamide] | 0% | 100% | < 10 nM | –
CC(C)Oc1cc(-c2ccc(F)cc2)nc2cc(C(=O)NCCCc3ncc[nH]3)ccc12 [Compound I-17, 2-(4-fluorophenyl)-N-[3-(1H-imidazol-2-yl)propyl]-4-isopropoxyquinoline-7-carboxamide] | 0% | 99% | < 10 nM | –
CCOc1nc(-c2ccc(F)cc2)nc2cc(C(=O)NCC(C)Cc3ncc[nH]3)ccc12 (stereo not drawn) [Compound I-18, 4-ethoxy-2-(4-fluorophenyl)-N-[3-(1H-imidazol-2-yl)-2-methylpropyl]quinazoline-7-carboxamide] | 0% | 99% | 10 to 50 nM | –
CCOc1nc(-c2ccc(F)cc2)nc2cc(C(=O)NCCCc3cncnc3)ccc12 [Compound I-19, 4-ethoxy-2-(4-fluorophenyl)-N-[3-(pyrimidin-5-yl)propyl]quinazoline-7-carboxamide] | 1% | > 99% | < 10 nM | –
CCOCc1nc(-c2ccc(Cl)cc2)nc2cc(C(=O)NCCCc3ncc[nH]3)ccc12 [Compound I-20, 2-(4-chlorophenyl)-4-(ethoxymethyl)-N-[3-(1H-imidazol-2-yl)propyl]quinazoline-7-carboxamide] | 1% | 98% | 10 to 50 nM | –
CC(C)Cc1nc(-c2ccc(Cl)cc2)nc2cc(C(=O)NCCCc3ncc[nH]3)ccc12 [Compound I-21, 2-(4-chlorophenyl)-N-[3-(1H-imidazol-2-yl)propyl]-4-isobutylquinazoline-7-carboxamide] | 0% | 99% | 10 to 50 nM | –
CCc1nc(-c2ccc(Cl)s2)nc2cc(C(=O)NCCCc3ncc[nH]3)ccc12 [Compound I-22, 2-(5-chloro-2-thienyl)-4-ethyl-N-[3-(1H-imidazol-2-yl)propyl]quinazoline-7-carboxamide] | 1% | > 99% | 10 to 50 nM | –
CC(C)Cc1nc(-c2ccc(Cl)s2)nc2cc(C(=O)NCCCc3ncc[nH]3)ccc12 [Compound I-23, 2-(5-chloro-2-thienyl)-N-[3-(1H-imidazol-2-yl)propyl]-4-isobutylquinazoline-7-carboxamide] | 1% | > 99% | 10 to 50 nM | –
CCCc1nc(-c2ccc(Cl)s2)nc2cc(C(=O)NCCCc3ncc[nH]3)ccc12 [Compound I-24, 2-(5-chloro-2-thienyl)-N-[3-(1H-imidazol-2-yl)propyl]-4-propylquinazoline-7-carboxamide] | 1% | > 99% | < 10 nM | –
COCc1nc(-c2ccc(Cl)cc2)nc2cc(C(=O)NCCCc3ncc[nH]3)ccc12 [Compound I-25, 2-(4-chlorophenyl)-N-[3-(1H-imidazol-2-yl)propyl]-4-(methoxymethyl)quinazoline-7-carboxamide] | 0% | – | < 10 nM | 99%
O=C(NCCCc1ncc[nH]1)c1ccc2c(CN3CCSCC3)nc(-c3ccc(Cl)cc3)nc2c1 [Compound I-26, 2-(4-chlorophenyl)-N-[3-(1H-imidazol-2-yl)propyl]-4-(thiomorpholin-4-ylmethyl)quinazoline-7-carboxamide] | 1% | 89% | > 100 nM | –
CCSc1nc(-c2ccc(F)cc2)nc2cc(C(=O)NCCCc3ncc[nH]3)ccc12 [Compound I-27, 4-(ethylsulfanyl)-2-(4-fluorophenyl)-N-[3-(1H-imidazol-2-yl)propyl]quinazoline-7-carboxamide] | 1% | – | < 10 nM | 98%
CCOc1nc(-c2ccc(Cl)s2)nc2cc(C(=O)NCc3ccc4nccn4c3)ccc12 [Compound I-28, 2-(5-chloro-2-thienyl)-4-ethoxy-N-(imidazo[1,2-a]pyridin-6-ylmethyl)quinazoline-7-carboxamide] | 1% | 99% | < 10 nM | –
CCOc1nc(-c2ccc(F)cc2)nc2cc(C(=O)NCCCc3ccnnc3)ccc12 [Compound I-29, 4-ethoxy-2-(4-fluorophenyl)-N-[3-(pyridazin-4-yl)propyl]quinazoline-7-carboxamide] | 1% | 100% | < 10 nM | –
CC(C)(C)OCc1nc(-c2ccc(Cl)cc2)nc2cc(C(=O)NCCCc3ncc[nH]3)ccc12 [Compound I-30, 4-(tert-butoxymethyl)-2-(4-chlorophenyl)-N-[3-(1H-imidazol-2-yl)propyl]quinazoline-7-carboxamide] | 1% | 91% | 50 to 100 nM | –
O=C(NCCCc1ncc[nH]1)c1ccc2c(C3CC3)nc(-c3ccc(Cl)cc3)nc2c1 [Compound I-31, 2-(4-chlorophenyl)-4-cyclopropyl-N-[3-(1H-imidazol-2-yl)propyl]quinazoline-7-carboxamide] | 1% | 97% | 10 to 50 nM | –
CCOc1nc(-c2ccc(F)cc2)nc2cc(C(=O)NCCCc3ncc[nH]3)ccc12 [Compound I-32, 4-ethoxy-2-(4-fluorophenyl)-N-[3-(1H-imidazol-2-yl)propyl]quinazoline-7-carboxamide] | 2% | > 99% | < 10 nM | –
CCc1nc(-c2ccc(Cl)cc2)nc2cc(C(=O)NCCCc3ncc[nH]3)ccc12 [Compound I-33, 2-(4-chlorophenyl)-4-ethyl-N-[3-(1H-imidazol-2-yl)propyl]quinazoline-7-carboxamide] | 1% | 97% | 10 to 50 nM | –
CCOc1nc(-c2ccc(F)cc2)nc2cc(C(=O)NCc3ccc4nccn4c3)ccc12 [Compound I-34, 4-ethoxy-2-(4-fluorophenyl)-N-(imidazo[1,2-a]pyridin-6-ylmethyl)quinazoline-7-carboxamide] | 1% | 97% | < 10 nM | –
CCOc1nc(-c2ccc(Cl)s2)nc2cc(C(=O)NCCCc3ncc[nH]3)ccc12 [Compound I-35, 2-(5-chloro-2-thienyl)-4-ethoxy-N-[3-(1H-imidazol-2-yl)propyl]quinazoline-7-carboxamide] | 1% | > 99% | < 10 nM | –
